Consider eleven compounds from ChEMBL document CHEMBL1201862, “PubChem BioAssay data set” (2004).

Among the test systems are MDA-N; SN12C; SK-OV-3; LOX IMVI; 786-0; MCF7; MOLT-4; Hs-578T; SF-295; RXF 393; UO-31; TK-10; NCI-H522; KM12; EKVX; Malme-3M; UACC-257; OVCAR-3; COLO 205.
Common to all, as to experiment: NCI anticancer screen, dose series, 48 h

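These data come from cells grown in 96-well plates and exposed to compound for 48 hours at five concentrations. Here, GI50 denotes the concentration required for 50% inhibition of growth.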 Active and inactive are the calls of the source. No stated cut-off is given here; in the data, active = GI50 up to about 1.1 µM and inactive = higher.

Regarding `c1nnc(NCNc2nncs2)s1`, the GI50 was 35.2 µM (inactive) with MDA-N; 30.9 µM (inactive) in the assay with SN12C; 23.7 µM (inactive) with SK-OV-3; 32.7 µM (inactive) with LOX IMVI; 46.8 µM (inactive) in the assay on 786-0; 38.5 µM (inactive) in the assay with MCF7. In addition, the GI50 is 29.6 µM (inactive) in the assay on MOLT-4; > 100 µM (inactive) in the assay on Hs-578T; 28.1 µM (inactive) in the assay on SF-295; 29 µM (inactive) with RXF 393; 53.3 µM (inactive) in the assay on UO-31; 86.9 µM (inactive) with TK-10. Also, the GI50 in the assay on NCI-H522 was 48.1 µM (inactive); in the assay on KM12 it was 50.1 µM (inactive); in the assay with EKVX, 23.3 µM (inactive); with Malme-3M it was > 100 µM (inactive); with UACC-257 it was 47.8 µM (inactive); in the assay on OVCAR-3, 21.5 µM (inactive). For the same compound, in the assay on COLO 205, the GI50 was 56.1 µM (inactive).

Regarding `Oc1ccc(C(c2ccc(O)cc2)c2ccc(O)cc2)cc1`, the GI50 in the assay with MDA-N is 25.9 µM (inactive); with SN12C it was 20.3 µM (inactive); in the assay on SK-OV-3, 14 µM (inactive); in the assay with LOX IMVI, 19.3 µM (inactive); with 786-0, 17.6 µM (inactive); in the assay with MCF7, 32.4 µM (inactive). For the same compound, the GI50 in the assay on MOLT-4 is 20.6 µM (inactive); in the assay with Hs-578T it was 21.7 µM (inactive); in the assay on SF-295, 41.4 µM (inactive); with RXF 393, 17.2 µM (inactive); in the assay on UO-31 it was 18.4 µM (inactive); in the assay with TK-10, 22.8 µM (inactive). In addition, the GI50 in the assay with NCI-H522 was 17.1 µM (inactive); with KM12, 16.7 µM (inactive); in the assay on EKVX it was 15.3 µM (inactive); in the assay on Malme-3M, 16.5 µM (inactive); in the assay on UACC-257 it was 20.4 µM (inactive); in the assay with COLO 205 it was 7.16 µM (inactive).

For `CN(C)C(=O)CO/N=C1/C(=C2/C(=O)Nc3ccccc32)Nc2ccccc21`, the GI50 is > 100 µM (inactive) with MDA-N; > 100 µM (inactive) with SN12C; > 100 µM (inactive) in the assay with SK-OV-3; > 100 µM (inactive) in the assay with LOX IMVI; 64.7 µM (inactive) in the assay with 786-0; > 100 µM (inactive) in the assay with MCF7. Moreover, the GI50 was > 100 µM (inactive) in the assay with MOLT-4; > 100 µM (inactive) in the assay with Hs-578T; 39.9 µM (inactive) with SF-295; 17.7 µM (inactive) in the assay on RXF 393; > 100 µM (inactive) in the assay on UO-31; 40.9 µM (inactive) in the assay on TK-10. Further, the GI50 was > 100 µM (inactive) with NCI-H522; 0.032 µM (active) in the assay on KM12; > 100 µM (inactive) in the assay on EKVX; > 100 µM (inactive) in the assay with Malme-3M; > 100 µM (inactive) in the assay with UACC-257; > 100 µM (inactive) in the assay with OVCAR-3. For the same compound, the GI50 with COLO 205 was 31.6 µM (inactive).

As to `Cc1cc(NS(=O)(=O)c2ccc(NC(=O)c3ccc4nc5ccccc5c(Nc5ccc(S(=O)(=O)N=C(N)N)cc5)c4c3)cc2)no1`, the GI50 in the assay with MDA-N is 19.5 µM (inactive); with SN12C, 17 µM (inactive); in the assay with SK-OV-3 it was 23.3 µM (inactive); in the assay with LOX IMVI it was 9.46 µM (inactive); in the assay on 786-0 it was 15.2 µM (inactive); with MCF7, 19.8 µM (inactive). The GI50 with MOLT-4 is 17.1 µM (inactive); in the assay on Hs-578T, 20 µM (inactive); with SF-295, 16.9 µM (inactive); with RXF 393, 15.3 µM (inactive); with UO-31 it was 17.2 µM (inactive); in the assay with TK-10, 25.5 µM (inactive). The GI50 in the assay on NCI-H522 was 17.1 µM (inactive); with KM12, 17.1 µM (inactive); with EKVX, 16.4 µM (inactive); in the assay on Malme-3M it was 15.6 µM (inactive); with UACC-257 it was 26.2 µM (inactive); in the assay on OVCAR-3, 17.7 µM (inactive). Further, in the assay with COLO 205, the GI50 was 18.8 µM (inactive).

As to `CCCCCCCCCCCCP(=O)(O)OCC(N)C(=O)O` (configuration not stated), the GI50 in the assay with MDA-N was 21.4 µM (inactive); with SN12C, 18.9 µM (inactive); in the assay with SK-OV-3 it was 21.6 µM (inactive); in the assay on LOX IMVI it was 24.9 µM (inactive); in the assay with 786-0, 27.5 µM (inactive); in the assay with MCF7, 42.1 µM (inactive). The GI50 with MOLT-4 was 16.9 µM (inactive); in the assay on Hs-578T, 20.2 µM (inactive); in the assay on SF-295 it was 17.4 µM (inactive); in the assay on RXF 393 it was 48.1 µM (inactive); in the assay with UO-31, 12.3 µM (inactive); with TK-10, 33.3 µM (inactive). Also, the GI50 in the assay with NCI-H522 is 5.22 µM (inactive); with EKVX it was 93.3 µM (inactive); with Malme-3M it was > 100 µM (inactive); in the assay with UACC-257, > 100 µM (inactive); with OVCAR-3 it was 18.7 µM (inactive); with COLO 205 it was 45.8 µM (inactive).

Regarding `COC(=O)/C(=N\NC(=S)NN)C(C(=O)OC)C(=O)C(=O)Nc1cccc(C(F)(F)F)c1` (configuration not stated), the GI50 with MDA-N, with SN12C, in the assay on SK-OV-3, with LOX IMVI, in the assay on 786-0 and in the assay with MCF7 was > 100 µM (inactive) each time. The GI50 in the assay with Hs-578T, with SF-295, with RXF 393, in the assay on UO-31, in the assay with TK-10 and in the assay with NCI-H522 was > 100 µM (inactive) each time. In addition, the GI50 in the assay on KM12, with EKVX, with Malme-3M, in the assay on UACC-257 and in the assay with OVCAR-3 was > 100 µM (inactive) throughout.

Regarding `COC(=O)[C@@H]1[C@H](O)CC[C@H]2[C@@]1(C)CC[C@@H](C)[C@]2(COC(C)=O)CC(=O)c1ccoc1`, the GI50 with MDA-N, in the assay on SN12C, in the assay with SK-OV-3, in the assay on LOX IMVI, in the assay with 786-0 and with MCF7 was > 50 µM (inactive) in each case. Besides, the GI50 in the assay with MOLT-4 was 28.6 µM (inactive); in the assay with Hs-578T, > 50 µM (inactive); with SF-295, > 50 µM (inactive); in the assay on RXF 393, > 50 µM (inactive); in the assay with UO-31 it was > 50 µM (inactive); with TK-10 it was > 50 µM (inactive). Further, the GI50 with NCI-H522 is 35.7 µM (inactive); in the assay with KM12, > 50 µM (inactive); in the assay on EKVX it was > 50 µM (inactive); in the assay on UACC-257 it was > 50 µM (inactive); in the assay on OVCAR-3, > 50 µM (inactive); with COLO 205, > 50 µM (inactive).

On to `C/C(CC(O)(C(F)(F)F)C(F)(F)F)=N\N`, for which the GI50 with MDA-N, in the assay with SN12C, with SK-OV-3, in the assay with LOX IMVI, in the assay on 786-0 and with MCF7 was > 10 µM (inactive) in each case. The GI50 in the assay on MOLT-4, in the assay on Hs-578T, in the assay with SF-295, in the assay on RXF 393, in the assay with TK-10 and with NCI-H522 was > 10 µM (inactive) in each case. Besides, the GI50 in the assay on KM12, with EKVX, in the assay on Malme-3M, in the assay on UACC-257, in the assay with OVCAR-3 and with COLO 205 was > 10 µM (inactive) throughout.

Take `O=[N+]([O-])c1ccc2c(c1)nc(Cc1ccccc1)n2C[C@@H]1CCCN2CCCCC12` (some centres not stated): the GI50 was 20.6 µM (inactive) in the assay with MDA-N; 48 µM (inactive) with SN12C; 34.4 µM (inactive) in the assay on SK-OV-3; 20.4 µM (inactive) with LOX IMVI; 22.3 µM (inactive) in the assay on 786-0; 41.1 µM (inactive) in the assay with MCF7. Moreover, the GI50 in the assay with MOLT-4 was 17.4 µM (inactive); in the assay with Hs-578T, 38.5 µM (inactive); in the assay with SF-295 it was 18 µM (inactive); with RXF 393, 19.4 µM (inactive); in the assay on UO-31, 6.49 µM (inactive); in the assay with TK-10 it was 37.5 µM (inactive). The GI50 was 21.6 µM (inactive) in the assay on NCI-H522; 21.3 µM (inactive) in the assay on KM12; 17.1 µM (inactive) in the assay on EKVX; 14.2 µM (inactive) in the assay with Malme-3M; 15.8 µM (inactive) in the assay on UACC-257; 41.5 µM (inactive) with OVCAR-3. In addition, the GI50 in the assay on COLO 205 is 17.3 µM (inactive).

Consider `CSc1ncnc2c1CCN2`, for which the GI50 with MDA-N is 3.4 µM (inactive); in the assay with SN12C, > 100 µM (inactive); with SK-OV-3, > 10 µM (inactive); in the assay with LOX IMVI, 6.34 µM (inactive); in the assay on 786-0, > 10 µM (inactive); in the assay on MCF7, 6.34 µM (inactive). The GI50 with MOLT-4 is > 10 µM (inactive); in the assay with Hs-578T it was 4.51 µM (inactive); with SF-295, 6.81 µM (inactive); with RXF 393, > 10 µM (inactive); in the assay with UO-31, 50.6 µM (inactive); in the assay with TK-10, > 10 µM (inactive). The GI50 is 2.73 µM (inactive) in the assay with NCI-H522; 5.35 µM (inactive) in the assay on KM12; > 10 µM (inactive) in the assay on EKVX; 6.62 µM (inactive) in the assay on Malme-3M; 3.83 µM (inactive) with UACC-257; 2.87 µM (inactive) with OVCAR-3. Moreover, the GI50 with COLO 205 was 8.85 µM (inactive).

Take `CCOc1cc(NC(C)=O)ccc1C(=O)N/N=C/c1ccco1`: the GI50 in the assay with MDA-N was > 100 µM (inactive); with SN12C, > 100 µM (inactive); with SK-OV-3, > 100 µM (inactive); with LOX IMVI, 38.4 µM (inactive); in the assay with 786-0 it was > 100 µM (inactive); in the assay on MCF7 it was 22.3 µM (inactive). Also, the GI50 in the assay on MOLT-4 was 20.9 µM (inactive); in the assay on Hs-578T, > 100 µM (inactive); in the assay with SF-295 it was > 100 µM (inactive); with RXF 393 it was > 100 µM (inactive); in the assay with TK-10, > 100 µM (inactive); with NCI-H522, > 100 µM (inactive). Moreover, the GI50 is > 100 µM (inactive) in the assay on KM12; > 100 µM (inactive) in the assay on EKVX; > 100 µM (inactive) in the assay on Malme-3M; > 100 µM (inactive) in the assay with UACC-257; > 100 µM (inactive) with OVCAR-3; 44.6 µM (inactive) in the assay on COLO 205.
